Reference: patent US20240368123A1, “AROMATIC RING-CONTAINING BIOLOGICAL ANTAGONIST, AND PREPARATION METHOD THEREFOR AND USE THEREOF” (SHANGHAI HANSOH BIOMEDICAL CO., LTD., priority 2021, published 2024)
pIC50: −log10 of the molar value.

Experiments:
[1] = target: T1, CYP450 enzyme subtype 3A4-T (Homo sapiens, UniProt P08684); assay: CYP enzyme single point inhibition test, 3A4-T; format: in vitro ADME; details: human liver microsomes, single point method
T1 construct: Human liver microsome incubation system was used; from tissue; host or cells: human liver microsomes
T1 sequence (P08684 whole entry): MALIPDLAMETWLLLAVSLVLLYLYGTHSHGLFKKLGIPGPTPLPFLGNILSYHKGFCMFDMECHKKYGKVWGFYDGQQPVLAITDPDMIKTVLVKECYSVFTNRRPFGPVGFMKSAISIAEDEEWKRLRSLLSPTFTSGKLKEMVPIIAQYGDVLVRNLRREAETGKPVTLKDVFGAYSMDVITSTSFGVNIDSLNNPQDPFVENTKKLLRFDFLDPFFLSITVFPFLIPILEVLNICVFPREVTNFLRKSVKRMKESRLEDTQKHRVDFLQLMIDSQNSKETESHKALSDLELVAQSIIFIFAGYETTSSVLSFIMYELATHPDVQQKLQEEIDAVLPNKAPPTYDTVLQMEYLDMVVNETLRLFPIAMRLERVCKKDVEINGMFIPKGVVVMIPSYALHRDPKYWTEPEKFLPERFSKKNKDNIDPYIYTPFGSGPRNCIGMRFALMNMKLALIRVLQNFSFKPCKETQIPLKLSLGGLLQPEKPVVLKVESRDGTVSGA
Procedure: (§1) Human liver microsome incubation system was used, and the single point method was used to quickly predict the inhibition on CYP450 enzyme subtypes (1A2, 2C19, 2D6, 3A4-M, and 3A4-T) by compounds.
(§2) For 2.5 mM NADPH, 4.165 mg of NADPH (reduced nicotinamide adenine dinucleotide phosphate) was weighed and 100 mM phosphate buffer was added to 2 mL. For 0.25 mg/mL microsomes, 50 μL of 20 mg/mL microsomes was added to 4 mL of 100 mM phosphate buffer and mixed evenly.
(§3) The test example compound was weighed, diluted to 10 mM with DMSO, and then diluted to 100 μM with 100 mM phosphate buffer.
(§4) • 1. 40 μL of liver microsomes, 10 μL of substrate, and 10 μL of test compound were added in a 96-well plate and the mixture was pre-incubated for 3 min. • 2. 40 μL of NADPH was added. • 3. At 20 min, 300 μL of acetonitrile stop solution containing internal standard was added. • 4. The mixture was centrifuged and the sample was loaded.

[2] = target: T2, CYP450 enzyme subtype 2C19 (Homo sapiens, UniProt P33261); assay: CYP enzyme single point inhibition test, 2C19; format: in vitro ADME; details: human liver microsomes, single point method
T2 construct: Human liver microsome incubation system was used; from tissue; host or cells: human liver microsomes
T2 sequence (P33261 whole entry): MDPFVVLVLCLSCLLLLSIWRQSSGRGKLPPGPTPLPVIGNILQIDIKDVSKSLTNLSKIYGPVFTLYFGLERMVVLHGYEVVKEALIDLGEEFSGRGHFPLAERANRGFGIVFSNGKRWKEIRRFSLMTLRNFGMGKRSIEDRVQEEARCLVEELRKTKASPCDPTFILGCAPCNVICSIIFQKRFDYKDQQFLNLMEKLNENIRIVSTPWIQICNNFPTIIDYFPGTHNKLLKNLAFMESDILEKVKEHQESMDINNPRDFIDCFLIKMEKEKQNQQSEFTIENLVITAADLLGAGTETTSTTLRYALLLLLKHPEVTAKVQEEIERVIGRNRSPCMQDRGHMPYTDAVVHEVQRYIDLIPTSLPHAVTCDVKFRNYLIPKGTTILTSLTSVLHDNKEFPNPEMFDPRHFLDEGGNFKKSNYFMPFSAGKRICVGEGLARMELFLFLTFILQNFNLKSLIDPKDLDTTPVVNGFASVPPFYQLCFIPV
Procedure: as §1, §2, §3, §4

[3] = target: T3, CYP450 enzyme subtype 3A4-M (Homo sapiens, UniProt P08684); assay: CYP enzyme single point inhibition test, 3A4-M; format: in vitro ADME; details: human liver microsomes, single point method
T3 construct: Human liver microsome incubation system was used; from tissue; host or cells: human liver microsomes
T3 sequence (P08684 whole entry): as the sequence (P08684 whole entry) above
Procedure: as §1, §2, §3, §4

[4] = tested on: spontaneously hypertensive rat (SHR) model; assay: Pharmacodynamic evaluation on blood pressure in spontaneously hypertensive rats; format: in vivo; details: P.O, 30 mpk, 1-8 h after administration, P<0.05
Description: This experiment used a spontaneously hypertensive rat (SHR) model to evaluate the pharmacodynamic effect of the test compounds on the blood pressure and heart rate of the model.
Kent Scientific CODA non-invasive blood pressure system.
Spontaneously hypertensive rats (SHR) were provided by Beijing Vital River Laboratory Animal Technology Co., Ltd., male, 150-200 g, 13-15 weeks old, 50 rats.
After animals arrived at the experimental facility, the animals were adapted to the animal facility for 5-7 days. 4.2 After the adaptation period, the animals were adapted to the tail oversleeve restrain for 3 days, and the tail oversleeve restrain was performed twice a day. After the last restrain adaptation, the basal blood pressure was measured, and the animals were randomly divided into groups according to the basal blood pressure. There was no significant difference between the average systolic blood pressure of animals in each group, and the number of animals in each group met the requirements of statistical testing and pharmacodynamic guidelines. 4.3 On the second day after grouping, the animals were administered according to experimental design and grouping (P.O, 5 mL/kg), and the systolic blood pressure (SBP), diastolic blood pressure (DBP), mean arterial pressure (MAP) and heart rate (HR) of the animals were measured before administration and at 1, 2, 4, 6, 8 and 24 h after administration using tail oversleeve method.
Statistical differences between groups were analyzed by Two-way ANOVA test. Among them, P<0.05 indicated a significant difference, and P<0.01 indicated an extremely significant difference.

SMILES	pIC50 [1]	pIC50 [2]	pIC50 [3]	blood pressure (systolic blood pressure, diastolic blood pressure, mean arterial pressure) compared with the vehicle group [4]
CCCCC1=NC2(CCCC2)C(=O)N1Cc1ccc(-c2ccccc2S(=O)(=O)Nc2noc(C)c2Br)c(COCC)c1 [Example 46, 2-[4-[(2-butyl-4-oxo-1,3-diazaspiro[4.4]non-1-en-3-yl)methyl]-2-(ethoxymethyl)phenyl]-N-(4-bromo-5-methyl-isoxazol-3-yl)benzsulfamide]	< 4.00	< 4.00	4.78	
[2H]C([2H])(OCC)c1cc(CN2C(=O)C3(CCCC3)N=C2CCCC)ccc1-c1ccccc1S(=O)(=O)Nc1noc(C)c1Cl [Example 49, 4′-((2-butyl-4-oxo-1,3-diazospiro[4.4]non-1-en-3-yl)methyl)-N-(4-chloro-5-methylisoxazol-3-yl)-2′-(ethoxydeuteriummethyl)-[1,1′-biphenyl]-2-sulfonamide]				significantly reduced blood pressure
